Measurements published in PMC10135378, “Synthesis of Novel N-Heterocyclic Carbene-Ruthenium (II) Complexes, “Precious” Tools with Antibacterial, Anticancer and Antioxidant Properties” (Antibiotics, 2023).

Assays:
[1] = Conductivity measurements (hydrolytic stability); format: physicochemical; conditions: DMSO/H2O 90/10, solutions about 10^−3 M, room temperature
Procedure: The proposed structures and hydrolytic stability were supported by conductivity measurements (solutions about 10^−3 M); in fact, the conductance values for the Ru compounds I, IV, V, and VI determined in DMSO/H2O 90/10 are substantially independent of the concentration, which is close to zero. […] This was attributed to the presence of a small amount of sodium iodide in the sample (about 10 mol%).
The NMR spectra were recorded on a Bruker AM 250 spectrometer (250 MHz for ^1H; 62.5 MHz for ^13C), a Bruker AM 300 spectrometer (300 MHz for ^1H; 75 MHz for ^13C), and a Bruker AVANCE 400 spectrometer (400 MHz for ^1H; 100 MHz for ^13C; 161.97 MHz for ^31P; 376 MHz for ^19F). NMR samples were prepared by solubilizing about 15 mg of compound in 0.5 mL of deuterated solvent. The ^1H and ^13C NMR chemical shifts are referenced to SiMe4 (δ = 0 ppm) using the residual proton impurities of the deuterated solvents as internal standards. ^1H NMR spectra are referenced using the residual solvent peak δ 2.50 for DMSO-d6 and δ 7.27 for CDCl3. ^13C NMR spectra are referenced using the residual solvent peak at δ 39.51 for DMSO-d6 and δ 77.23 for CDCl3. Multiplicities are abbreviated as follows: singlet (s), doublet (d), triplet (t), multiplet (m), doublet of doublets (dd), broad (br), and overlapped (o). Elemental analysis was conducted using a PERKIN-Elmer 240-C analyzer. ESI-MS measurements were performed on a Waters Quattro Micro triple quadrupole mass spectrometer, equipped with an electrospray ion source. MALDI-MS mass spectra were achieved by a Bruker SolariX XR Fourier transform ion cyclotron resonance mass spectrometer (Bruker Daltonik GmbH, Bremen, Germany) with a 7 T refrigerated actively shielded superconducting magnet (Bruker Biospin, Wissembourg, France). MALDI ion source (Bruker Daltonik GmbH, Bremen, Germany) was used in the samples in positive ion mode. The mass range was set to m/z 200–3000. The laser power was 28% and 22 laser shots were utilized for each scan. The mass spectra were calibrated externally using a mix of peptide clusters in MALDI ionization positive ion mode. A linear calibration was applied. The molar conductance of the ruthenium complexes was measured at room temperature by a Metrohm 712 Conductometer using freshly prepared 10^−3 M solutions in DMSO/H2O 90/10 solvent.

MDA-MB-231 cells = experiment: TUNEL assay, apoptosis; format: cell-based, human; conditions: complexes at their IC50 values, 24 h
Procedure: Thus, using the TUNEL assay we determined whether the Ru-NHC complexes RANHC-V and -VI were able to trigger apoptosis in the MDA-MB-231 cells. The latter were first exposed to the Ru complexes, used at their IC50 values for 24 h, and then subjected to the rTdT enzyme, as indicated in the experimental section.
A TUNEL assay was used for cells apoptosis detection, following the manufacturer’s protocols (CF™488A TUNEL Assay Apoptosis Detection Kit, Biotium, Hayward, CA, USA), with some changes. Briefly, cells were seeded and then processed, as described. DAPI (0.2 μg/mL, Sigma Aldrich, Milan, Italy) staining was adopted for nuclei. A fluorescence microscope (Leica DM 6000) was used for fluorescence detection (20x magnification). LAS-X software was used to acquire and process all the images that are representative of three different experiments.
Figure 5 TUNEL assay. MDA-MB-231 breast cancer cells were treated with Ru-NHC complexes RANHC-V and -VI at their IC50 values or with the vehicle (CTRL) for 24 h. Then, cells were incubated with rTdT enzyme and then observed and imaged under an inverted fluorescence microscope at 20× magnification (see Materials and Methods section). Panels (A): DAPI (λex/λem = 350/460 nm); Panels (B): CF^TM488A (λex/λem = 490/515 nm); Panels (C): show the overlay. Fields are representative of three independent experiments.

human topoisomerase I = biological target: T1, human topoisomerase I (Homo sapiens, UniProt P11387); experiment: hTopo I relaxation assay; format: biochemical; conditions: 10 µM, 2 h at 37 °C, supercoiled pHOT1 substrate
T1 construct: purchased TopoGEN, Port Orange, FL, USA
T1 sequence (P11387 1-765): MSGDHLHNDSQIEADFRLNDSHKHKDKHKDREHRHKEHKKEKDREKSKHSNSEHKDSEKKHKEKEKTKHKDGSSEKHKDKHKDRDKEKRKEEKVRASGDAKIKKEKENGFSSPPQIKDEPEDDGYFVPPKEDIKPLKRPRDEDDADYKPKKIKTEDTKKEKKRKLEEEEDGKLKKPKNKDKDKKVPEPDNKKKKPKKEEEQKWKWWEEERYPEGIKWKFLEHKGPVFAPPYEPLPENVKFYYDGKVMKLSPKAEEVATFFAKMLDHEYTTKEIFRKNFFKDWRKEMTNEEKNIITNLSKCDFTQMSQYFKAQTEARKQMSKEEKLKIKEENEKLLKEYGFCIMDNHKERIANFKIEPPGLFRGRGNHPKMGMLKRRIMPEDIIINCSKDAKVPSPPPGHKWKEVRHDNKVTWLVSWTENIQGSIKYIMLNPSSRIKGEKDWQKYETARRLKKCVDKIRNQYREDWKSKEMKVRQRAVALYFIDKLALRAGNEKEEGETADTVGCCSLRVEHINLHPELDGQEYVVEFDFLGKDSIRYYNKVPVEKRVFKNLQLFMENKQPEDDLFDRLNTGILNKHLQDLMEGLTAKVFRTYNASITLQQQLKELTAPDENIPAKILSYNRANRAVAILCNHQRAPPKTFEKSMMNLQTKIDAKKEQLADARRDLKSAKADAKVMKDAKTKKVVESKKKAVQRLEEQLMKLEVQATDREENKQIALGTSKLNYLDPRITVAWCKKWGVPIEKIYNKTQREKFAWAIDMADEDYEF
Excerpt: We performed the hTopo I relaxation assay using as a substrate the supercoiled plasmid pHOT1 and exposing the enzyme to our selected complexes or vehicle. […] Indeed, in lanes 4 and 5, corresponding to the enzymatic reactions in the presence of complexes RANHC-V or -VI, only the supercoiled DNA was present, noticeable as a single band in the lower portion of the agarose gel. Contrarily, in the CTRL (vehicle) reaction (Figure 3, lane 3), multiple bands related to the relaxed DNA products were detected.
hTopoI relaxation assays were done using the supercoiled pHOT1 as substrate, with the recombinant hTopoI (TopoGEN, Port Orange, FL, USA) and compounds RANHC-V and -VI or DMSO (CTRL) following the manufacturer’s protocol (TopoGEN, Port Orange, FL, USA), with some changes.
Figure 3 Human topoisomerase I […] assay. hTopo I was incubated with the vehicle alone (CTRL) or with the tested complexes RANHC-V and -VI at 10 µM for 2 h at 37 °C, using the supercoiled DNA pHOT1 as substrate. 1, relaxed DNA marker; 2, pHOT1; 3, CTRL (DMSO); 4 and 5, Ru-NHC complexes RANHC-V and -VI (10 µM), respectively. The image is representative of three separate experiments.

conductivity [1] | inhibition of hTopo I activity (human topoisomerase I) | Structure (SMILES) | apoptosis (TUNEL) (MDA-MB-231 cells)
6.3–25.6 μS cm^−1 |  | CN1C=CN2CC(c3ccccc3)[O+](C)[Ru]([Cl])=[C]12.Cc1ccc(C(C)C)cc1.F[P-](F)(F)(F)(F)F (stereo not shown) [RANHC-III] | 
13.1–44.2 μS cm^−1 |  | COC(Cn1ccn(C)[c]1=[Ru]([I])[I])c1ccccc1.Cc1ccc(C(C)C)cc1 (stereo not shown) [RANHC-II] | 
close to zero |  | COC(Cn1ccn(C)[c]1=[Ru]1[O]C(=O)C(=O)[O]1)c1ccccc1.Cc1ccc(C(C)C)cc1 (stereo not shown) [RANHC-IV] | 
close to zero |  | COC(Cn1ccn(C)[c]1=[Ru]([Cl])[Cl])c1ccccc1.Cc1ccc(C(C)C)cc1 (stereo not shown) [RANHC-I] | 
close to zero | totally inhibit | COC(Cn1[c](=[Ru]([Cl])[Cl])n(C)c2ccccc21)c1ccccc1.Cc1ccc(C(C)C)cc1 (stereo not shown) [RANHC-VI] | TUNEL-positive
close to zero | totally inhibit | COC(Cn1c(Cl)c(Cl)n(C)[c]1=[Ru]([Cl])[Cl])c1ccccc1.Cc1ccc(C(C)C)cc1 (stereo not shown) [RANHC-V] | TUNEL-positive
